Source: article PMC3515674 (Angewandte Chemie (International ed. in English), 2011)
Like-named read-outs stand apart in the source and are kept apart here. Ends that are not written are not given here. MCA = 7-methoxycoumarin-4-acetic acid

Biological target: T1, purified human α2M (Homo sapiens, UniProt P01023)
T1 sequence (P01023 24-1474): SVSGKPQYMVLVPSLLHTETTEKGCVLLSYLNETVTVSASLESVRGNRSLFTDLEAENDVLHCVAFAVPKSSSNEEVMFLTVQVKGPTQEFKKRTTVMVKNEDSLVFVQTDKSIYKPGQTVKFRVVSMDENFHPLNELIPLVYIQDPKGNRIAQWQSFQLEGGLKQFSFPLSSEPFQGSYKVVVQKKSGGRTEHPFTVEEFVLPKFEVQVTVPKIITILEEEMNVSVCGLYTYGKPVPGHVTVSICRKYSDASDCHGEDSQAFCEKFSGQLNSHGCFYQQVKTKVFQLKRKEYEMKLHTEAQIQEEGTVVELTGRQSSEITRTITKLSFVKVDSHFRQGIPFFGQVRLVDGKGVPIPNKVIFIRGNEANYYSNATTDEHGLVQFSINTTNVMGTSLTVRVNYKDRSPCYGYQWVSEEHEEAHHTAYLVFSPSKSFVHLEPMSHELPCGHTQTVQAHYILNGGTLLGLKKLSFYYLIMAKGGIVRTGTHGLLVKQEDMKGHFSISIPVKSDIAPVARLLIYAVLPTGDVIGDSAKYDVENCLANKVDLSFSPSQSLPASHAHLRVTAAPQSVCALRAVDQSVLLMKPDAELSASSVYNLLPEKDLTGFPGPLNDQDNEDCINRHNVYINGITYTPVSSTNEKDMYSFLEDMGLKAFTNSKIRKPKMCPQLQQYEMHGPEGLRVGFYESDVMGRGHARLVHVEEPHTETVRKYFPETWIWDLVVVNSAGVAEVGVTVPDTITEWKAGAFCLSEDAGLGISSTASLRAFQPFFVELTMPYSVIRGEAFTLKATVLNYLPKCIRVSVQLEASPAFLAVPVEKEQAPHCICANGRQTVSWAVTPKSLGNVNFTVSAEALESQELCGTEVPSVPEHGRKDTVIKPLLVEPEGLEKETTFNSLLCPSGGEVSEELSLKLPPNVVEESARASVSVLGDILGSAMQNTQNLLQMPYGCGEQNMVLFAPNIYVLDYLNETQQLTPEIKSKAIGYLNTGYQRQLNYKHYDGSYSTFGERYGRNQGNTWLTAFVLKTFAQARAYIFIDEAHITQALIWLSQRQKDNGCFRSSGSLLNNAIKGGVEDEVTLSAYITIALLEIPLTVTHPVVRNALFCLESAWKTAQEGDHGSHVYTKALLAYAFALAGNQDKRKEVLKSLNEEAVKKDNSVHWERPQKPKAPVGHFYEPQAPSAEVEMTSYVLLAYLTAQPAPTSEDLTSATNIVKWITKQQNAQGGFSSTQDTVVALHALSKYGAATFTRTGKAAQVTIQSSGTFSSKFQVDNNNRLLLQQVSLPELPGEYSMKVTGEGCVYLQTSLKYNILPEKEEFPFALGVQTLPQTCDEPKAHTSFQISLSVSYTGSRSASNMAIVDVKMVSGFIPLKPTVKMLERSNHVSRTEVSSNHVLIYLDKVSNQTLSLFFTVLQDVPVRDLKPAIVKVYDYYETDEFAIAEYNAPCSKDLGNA
Format: biochemical

Molecule | inhibition of α2M deacylating activity [%] | inhibition of α2M deacylating activity (100 µM) [%] | Km [µM] | kcat [min⁻¹]
O=[N+]([O-])c1ccc(OP(=O)(O)Oc2ccc([N+](=O)[O-])cc2)cc1 [BNPP, bis-p-nitrophenyl-phosphate] | 40 | 0 |  | 
ghrelin-MCA: full length acylated ghrelin containing the fluorophore 7-methoxycoumarin-4-acetic acid (MCA) at the C-terminus (GSSFLSPEHQRVQQRKESKKPPAKLQPR-{MCA}; also: octanoyl acylated, position not given here; UniProt Q9UBU3 24-51, looked up) |  |  | 24 ± 3 | 0.023 ± 0.001
